According to patent publication US9637520B2, “Template-fixed peptidomimetics with CXCR7 modulating activity” (POLYPHOR AG, priority 2010, dated 2017):
Starred links: 1 amine or outer side, 2 acyl side, 3 side chain; linkers in the order of their positions; H or OH if unused. Non-standard residues stand in square brackets, D forms with d. Residues, ends and D or L forms follow the SMILES beside them. *: point of attachment. Arg(Nω,Nω'-propylene) = N[C@@H](CCCNC1=NCCCN1)C(=O)O; dPro(cis-4-NH2) = N[C@H]1CN[C@@H](C(=O)O)C1; X1 = O=C([C@H](CCCNCc1ccccn1)N[*:1])[*:2]; X4 = Cn1ccnc1CNCCC[C@H](N[*:1])C(=O)[*:2]; Tiq1c(1S) = O=C(O)[C@H]1NCCc2ccccc21; X2 = O=C([C@H](Cn1ncnn1)N[*:1])[*:2]; Pyrazinecarbonyl = O=C(c1cnccn1)*; hArg = N=C(N)NCCCC[C@H](N)C(=O)O; Tic = O=C(O)[C@@H]1Cc2ccccc2CN1; dTic = O=C(O)[C@H]1Cc2ccccc2CN1; Cha = N[C@@H](CC1CCCCC1)C(=O)O; dOrn = NCCC[C@@H](N)C(=O)O; Nle = CCCC[C@H](N)C(=O)O; Orn = NCCC[C@H](N)C(=O)O

Molecular target: T1, CXCR7 (Homo sapiens, UniProt P25106)
T1 construct: host or cells: CHO (PathHunter CHO-CXCR7 β-arrestin cells)
T1 sequence (P25106 whole entry): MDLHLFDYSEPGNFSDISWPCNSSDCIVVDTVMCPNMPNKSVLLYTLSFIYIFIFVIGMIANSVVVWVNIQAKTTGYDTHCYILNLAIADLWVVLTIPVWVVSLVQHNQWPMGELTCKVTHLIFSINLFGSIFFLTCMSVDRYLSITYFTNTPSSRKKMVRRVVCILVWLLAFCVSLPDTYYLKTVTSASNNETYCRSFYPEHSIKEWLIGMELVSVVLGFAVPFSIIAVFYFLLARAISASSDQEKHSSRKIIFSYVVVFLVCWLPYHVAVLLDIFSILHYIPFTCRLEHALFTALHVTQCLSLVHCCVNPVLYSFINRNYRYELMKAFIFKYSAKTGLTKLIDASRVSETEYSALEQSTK
Assay: CXCR7 β-arrestin recruitment assay (PathHunter CHO-CXCR7, DiscoverX), agonistic assay
Type: cell-based
Conditions: agonistic assay; CHO CXCR7 β-arrestin cells; 90 min at 37° C.; chemiluminescence; read-out: β-Arrestin EC50
How it was run: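 CHO cells co-expressing CXCR7 and β-arrestin (PathHunter), seeded overnight, then exposed to serially diluted compounds at 1% DMSO for 90 min at 37 °C; SDF-1 served as positive agonist control. Enzyme-fragment complementation detection developed 90 min at room temperature, read by chemiluminescence.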

Compound	EC50 [µM]
CCCC[C@@H]1NC(=O)[C@H]([C@@H](C)O)NC(=O)[C@H]2CCCN2C(=O)[C@H](Cc2c[nH]c3ccccc23)NC(=O)[C@H](CCCNC(=N)N)NC(=O)[C@@H](CCCNC(=N)N)NC1=O [compound 61, cyclo(-Nle-^DArg-Arg-Trp-^DPro-Thr-)] (cyclo([Nle][dR]RW[dP]T))	0.0028 ± 0.001
C[C@@H](O)[C@@H]1NC(=O)[C@H]2CCCN2C(=O)[C@H](Cc2c[nH]c3ccccc23)NC(=O)[C@H](CCCNC(=N)N)NC(=O)[C@@H](CCCNC(=N)N)NC(=O)[C@H](CC2CCCCC2)NC1=O [compound 62, cyclo(-Cha-^DArg-Arg-Trp-^DPro-Thr-)] (cyclo([Cha][dR]RW[dP]T))	0.0377 ± 0.0185
CC[C@H](C)[C@@H]1NC(=O)[C@H]([C@@H](C)O)NC(=O)[C@H]2CCCN2C(=O)[C@H](Cc2c[nH]c3ccccc23)NC(=O)[C@H](CCCNC(=N)N)NC(=O)[C@@H](CCCN)NC1=O [compound 63, cyclo(-Ile-^DOrn-Arg-Trp-^DPro-Thr-)] (cyclo(I[dOrn]RW[dP]T))	0.0233 ± 0.0073
CC[C@H](C)[C@@H]1NC(=O)[C@H]([C@@H](C)O)NC(=O)[C@H]2CCCN2C(=O)[C@H](Cc2c[nH]c3ccccc23)NC(=O)[C@H](CCCNC(=O)c2cnccn2)NC(=O)[C@@H](CCCNC(=N)N)NC1=O [compound 64, cyclo(-Ile-^DArg-Orn(A41)-Trp-^DPro-Thr-)] (cyclo(I[dR][Orn](Pyrazinecarbonyl)W[dP]T))	0.518 ± 0.0209
CC[C@H](C)[C@@H]1NC(=O)[C@H]([C@@H](C)O)NC(=O)[C@H]2CCCN2C(=O)[C@H](Cc2c[nH]c3ccccc23)NC(=O)[C@H](CCCN)NC(=O)[C@@H](CCCNC(=N)N)NC1=O [compound 65, cyclo(-Ile-^DArg-Orn-Trp-^DPro-Thr-)] (cyclo(I[dR][Orn]W[dP]T))	0.816 ± 0.0588
CC[C@H](C)[C@@H]1NC(=O)[C@H]([C@@H](C)O)NC(=O)[C@H]2CCCN2C(=O)[C@H](Cc2c[nH]c3ccccc23)NC(=O)[C@H](CCCCNC(=N)N)NC(=O)[C@@H](CCCNC(=N)N)NC1=O [compound 66, cyclo(-Ile-^DArg-hArg-Trp-^DPro-Thr-)] (cyclo(I[dR][hArg]W[dP]T))	0.011 ± 0.0045

Second part, the compound after the results:

EC50 [µM]	Compound
0.0142 ± 0.0052	CC[C@H](C)[C@@H]1NC(=O)[C@H]([C@@H](C)O)NC(=O)[C@H]2Cc3ccccc3CN2C(=O)[C@H](Cc2c[nH]c3ccccc23)NC(=O)[C@H](CCCNC(=N)N)NC(=O)[C@@H](CCCNC(=N)N)NC1=O [compound 67, cyclo(-Ile-^DArg-Arg-Trp-^DTic-Thr-)] (cyclo(I[dR]RW[dTic]T))
0.0046 ± 0.0008	CC[C@H](C)[C@@H]1NC(=O)[C@H]([C@@H](C)O)NC(=O)[C@H]2CCCN2C(=O)[C@H](Cc2c[nH]c3ccccc23)NC(=O)[C@H](CCCNCc2ccccn2)NC(=O)[C@@H](CCCNC(=N)N)NC1=O [compound 70, cyclo(-Ile-^DArg-Orn(Ar4)-Trp-^DPro-Thr-)] (cyclo(I[dR][X1]W[dP]T))
0.0281 ± 0.0051	N=C(N)NCCC[C@@H]1NC(=O)[C@H](Cc2c[nH]c3ccccc23)NC(=O)[C@@H](Cc2ccccc2)NC(=O)[C@H](Cn2ncnn2)NC(=O)[C@@H]2Cc3ccccc3CN2C(=O)[C@H]2C[C@@H](N)CN2C1=O [compound 75, cyclo(-Ala(Tet)-^DPhe-Trp-Arg-^DPro((4R)NH2)-Tic-)] (cyclo(R[dPro(cis-4-NH2)][Tic][X2][dF]W))
0.181 ± 0.0629	N=C(N)NCCC[C@@H]1NC(=O)[C@H](Cc2c[nH]c3ccccc23)NC(=O)[C@@H](Cc2ccccc2)NC(=O)[C@H](CCCNC2=NCCCN2)NC(=O)[C@@H]2Cc3ccccc3CN2C(=O)[C@H]2C[C@@H](N)CN2C1=O [compound 77, cyclo(-Orn(A56)-^DPhe-Trp-Arg-^DPro((4R)NH2)-Tic-)] (cyclo(R[dPro(cis-4-NH2)][Tic][Arg(Nω,Nω'-propylene)][dF]W))
0.145 ± 0.0109	Cn1ccnc1CNCCC[C@@H]1NC(=O)[C@H](Cc2c[nH]c3ccccc23)NC(=O)[C@@H](Cc2ccccc2)NC(=O)[C@H](Cc2c[nH]c3ccccc23)NC(=O)[C@@H]2Cc3ccccc3CN2C(=O)[C@H]2C[C@@H](N)CN2C1=O [compound 78, cyclo(-Trp-^DPhe-Trp-Orn(Ar7)-^DPro((4R)NH2)-Tic-)] (cyclo([Tic]W[dF]W[X4][dPro(cis-4-NH2)]))
0.0469 ± 0.0125	N[C@@H]1C[C@@H]2C(=O)N3CCc4ccccc4[C@H]3C(=O)N[C@@H](Cc3c[nH]c4ccccc34)C(=O)N[C@H](Cc3ccccc3)C(=O)N[C@@H](Cc3c[nH]c4ccccc34)C(=O)N[C@@H](CCCNC3=NCCCN3)C(=O)N2C1 [compound 79, cyclo(-Trp-^DPhe-Trp-Orn(A56)-^DPro((4R)NH2)-Tiq-)] (cyclo(W[dF]W[Arg(Nω,Nω'-propylene)][dPro(cis-4-NH2)][Tiq1c(1S)]))
0.0334 ± 0.0008	N[C@@H]1C[C@@H]2C(=O)N3Cc4ccccc4C[C@H]3C(=O)N[C@@H](Cc3c[nH]c4ccccc34)C(=O)N[C@H](Cc3ccccc3)C(=O)N[C@@H](Cc3c[nH]c4ccccc34)C(=O)N[C@@H](CCCNC3=NCCCN3)C(=O)N2C1 [compound 80, cyclo(-Trp-^DPhe-Trp-Orn(A56)-^DPro((4R)NH2)-Tic-)] (cyclo([Tic]W[dF]W[Arg(Nω,Nω'-propylene)][dPro(cis-4-NH2)]))
